{
  "source": "patent US5538834A",
  "about": "“Blocked photographically useful compounds for use with peroxide-containing processes” (Eastman Kodak Company, priority 1994, dated 1996)",
  "assay_type_in_all_cases": "physicochemical",
  "key": {"[1]": {"assay": "Deblocking / dye release from ballasted blocked filter dye coating in alkaline buffer flow cell (Example 2)", "conditions": "for % reaction after 400 sec.: 6.66667 min", "description": "DOC Gelatin (2700 mg/m^2)\nFILTER DYE LAYER Gelatin (3780 mg/m^2)\nbis(vinylsulfonylmethyl)ether\nFILMBASE polyacetate-butyrate\nCoating strips were suspended in a flow cell while alkaline buffer solutions at 40° C. were passed through it. As deblocking proceeded, the yellow color of the strips was reduced as the water-solublefilter dye was released and washed out of the film."}, "[2]": {"assay": "Accelerated keeping test of coatings, raw stock stability (Example 2)", "conditions": "2 weeks at 50° C. and 50% relative humidity; 20160 min", "text": "Coatings containing compound 32 as described above were also subjected to accelerated keeping tests to determine raw stock stability."}, "[3]": {"assay": "Thermal stability: retained blocked developing agent by HPLC after incubation (Examples 3-5)", "conditions": "1 week at 100° F. and 50% relative humidity, 10080 min", "description": "Blocked p-phenylenediamine developing agents 1, 3 and 6 were incorporated in photographic elements and evaluated for image dye formation activity and stability under storage conditions. The photographic elements were prepared as follows. The developing agents were dissolved in a high vapor pressure organic solvent (ethyl acetate for compounds 1 and 6, cyclohexanone for compound 3). The solutions were subsequently emulsified in aqueous gelatin using Alkanol-XC (Du Pont) as a dispersing aid. The dispersions were formulated such that the developing agents were initially present at 3% by weight, gelatin at 4% by weight and Alkanol-XC at 0.4% by weight. The initial slurries were emulsified by passing the mixtures through a colloid mill using known procedures. The organic solvents were then removed by evaporation.\nSets of strips were incubated for 1 week at 100° F. and 50% relativ humidity, and then evaluated by high performance liquid chromatography for amount of retained blocked developing agent. Sensitometry was obtained for step-tablet white-light exposures by contacting the strips with an activator solution at 77° F. The activator solution had the following composition:\nThe imaging activity and thermal stability of the exemplary blocked developing agents are given in Table V. The thermal stability denotes the percent retention, that is, the relative amount of blocked developing agent remaining after incubation, relative to the amount of developing agent initially coated."}, "[4]": {"assay": "Ester cleavage rate in solution without and with hydrogen peroxide (Example 1)", "conditions": "pH 10 solution, 25° C., 5% CH3CN aqueous solution", "quoted_text": "^a 5% CH3 CN aqueous solution\nnonionic surfactant micellar solution\n^c pH 10 solution, 25° C."}},
  "data": [
    {"smiles": "CCCCCCCCCCCCCCCCS(=O)(=O)Nc1ccc(C(=O)Nc2cc(COC(=O)Nc3cc(N(C)C)ccc3N=Nc3cccc(C(=O)O)c3)ccc2OC(=O)CC)cc1", "note": "[compound 32]", "values": [
      {"measurement": "t1/2", "setting": "[1]; pH 10, 0.2 N H2O2, 40° C.", "value": 3.67, "unit": "min"},
      {"measurement": "% reaction after 400 sec.", "setting": "[1]; pH 10, 0.2 N H2O2, 40° C.", "value": 77, "unit": "%"},
      {"measurement": "t1/2", "setting": "[1]; pH 10, no H2O2, 40° C.", "value": "very long"},
      {"measurement": "% reaction after 400 sec.", "setting": "[1]; pH 10, no H2O2, 40° C.", "value": 3, "unit": "%"},
      {"measurement": "t1/2", "setting": "[1]; pH 10.7, 0.2 N H2O2, 40° C.", "value": 1.17, "unit": "min"},
      {"measurement": "% reaction after 400 sec.", "setting": "[1]; pH 10.7, 0.2 N H2O2, 40° C.", "value": 100, "unit": "%"},
      {"measurement": "t1/2", "setting": "[1]; pH 10.7, no H2O2, 40° C.", "value": 13, "unit": "min"},
      {"measurement": "% reaction after 400 sec.", "setting": "[1]; pH 10.7, no H2O2, 40° C.", "value": 31, "unit": "%"},
      {"measurement": "recovery after storage", "setting": "[2]", "value": "greater than 93%"}
    ]},
    {"smiles": "CCN(CCNS(C)(=O)=O)c1ccc(NC(=O)OCc2ccc(OC(=O)C(C)(C)C)c(NS(C)(=O)=O)c2)c(C)c1", "note": "[compound 1]", "values": [
      {"measurement": "Retention", "setting": "[3]", "value": 100, "unit": "%"}
    ]},
    {"smiles": "CCC(=O)Oc1ccc(COC(=O)Nc2ccc(N(CC)CCNS(C)(=O)=O)cc2C)cc1NC(=O)c1ccc(NS(C)(=O)=O)cc1", "note": "[compound 6]", "values": [
      {"measurement": "Retention", "setting": "[3]", "value": 100, "unit": "%"}
    ]},
    {"smiles": "CCN(CCNS(C)(=O)=O)c1ccc(NC(=O)OCc2ccc(OC(=O)C(C)C)c(NC(=O)CCCC(=O)O)c2)c(C)c1", "note": "[compound 3]", "values": [
      {"measurement": "Retention", "setting": "[3]", "value": 98, "unit": "%"}
    ]},
    {"smiles": "CC(C)(C)C(=O)Oc1ccc([N+](=O)[O-])cc1", "note": "[p-nitrophenyl pivalate]", "values": [
      {"measurement": "t1/2, 0.1M H2O2", "setting": "[4]; 0.1M H2O2", "value": 0.0113, "unit": "min"},
      {"measurement": "t1/2, no H2O2", "setting": "[4]; no H2O2", "value": 95, "unit": "min"}
    ]}
  ]
}
